{
  "source": "patent US4310523A",
  "about": "“Combined antiestrogens and antigonadotropically effective antiandrogens for the prophylaxis and therapy of hyperplasia of the prostate” (priority 1978, dated 1982)",
  "key": {"[1]": {"test_system": "vaginal epithelium (hornification)", "assay": "Vaginal swab test of the castrated rat", "format": "in vivo", "settings": "subcutaneous, 1 mg", "method": "One example of compounds having possible antiestrogenic effects which are not included within the scope of this invention are those disclosed in U.S. Pat. No. 4,055,641 to Benson et al which are primarily anabolic androgens. For example, the compound preferred by Benson et al, 3,17-dioxoandrost-4-ene-19-al (Column 3, lines 67-68) was tested in the vaginal swab test of the castrated rat after subcutaneous application in a dosage of 1 mg. […] In addition, the compounds of Benson et al were tested on intact (not castrated) male animals or probands. These estrogenous substances acted on the prostate by removal of androgen, not by displacing estrogen as for the antiestrogens used in this invention. The difference between the antiestrogens acting through an antagonism to estrogen receptors, i.e., those used in this invention, and those which are primariy androgenic or gestogenic in activity with some simultaneous antiestrogenic effect is also discussed in Nishino, supra."}, "[2]": {"test_system": "Estradiol-stimulated Uterus Weight of Infantile Mice", "assay": "Antiestrogenic effect on the estradiol-stimulated uterus weight of infantile mice (uterus growth test)", "format": "in vivo", "settings": "for Effect on uterus weight of the estradiol-stimulated uterus of infantile mice, in words: s.c., 0.3-300 μg/animal/day", "method": "Daily for 3 days 0.03 μg of estradiol and measured dosages of the antiestrogen to be tested are simultaneously applied to castrated or infantile mice subcutaneously. The animals are killed on the fourth day, and the uteri are removed and weighed without contents (See Table 1). The same test is carried out on castrated or infantile rats using 0.1 μg of estradiol.\nAntiestrogenic Effect of Ru-16117 and Tamoxifen on the Estradiol-stimulate\nd Uterus Weight of Infantile Mice\n(Mode of Administration: Subcutaneous - Number of Animals per Group:\nRu-16117, Tamoxifen and Estradiol are dissolved in a medium consisting of\nbenzylbenzoate/castor oil (1:10)"}, "prostate hyperplasia [3]": {"test_system": "prostate hyperplasia", "assay": "Prostate hyperplasia in younger dogs treated with estrogen or estrogen/androgen mixture, additional treatment with anti-androgen", "format": "in vivo, dog", "settings": "additional cyproterone acetate", "source_text": "Also in the dog, there is a proliferation primarily of the fibromuscular portion of the prostate. It is also possible to cause the aspects of the disease in younger dogs by treatment with an estrogen or an estrogen/androgen mixture."}, "prostate hyperplasia [4]": {"test_system": "prostate hyperplasia", "settings": "cited from earlier work"}, "hyperplastic prostate": {"test_system": "hyperplastic prostate", "settings": "one-year study, patients; cited from earlier work"}, "[5]": {"settings": "3 μg/animal/day s.c. + 0.03 μg estradiol/animal/day, 3 days"}, "[6]": {"settings": "3 μg/animal/day s.c. + 0.03 μg estradiol/animal/day, 3 days, 8 animals per group"}, "[7]": {"settings": "30 μg/animal/day s.c. + 0.03 μg estradiol/animal/day, 3 days"}, "[8]": {"settings": "30 μg/animal/day s.c. + 0.03 μg estradiol/animal/day, 3 days, 8 animals per group"}},
  "data": [
    {"smiles": "C[C@]12CC[C@H]3[C@@H](CCC4=CC(=O)CC[C@@]43C=O)[C@@H]1CCC2=O", "note": "[3,17-dioxoandrost-4-ene-19-al]", "values": [
      {"measurement": "Estrogenous effect", "setting": "[1]", "value": "strongly estrogenous effect"},
      {"measurement": "Hornification of the vaginal epithelium", "setting": "[1]", "value": "Hornification of the vaginal epitelium took place"}
    ]},
    {"smiles": "C[C@]12CC[C@@H]3c4ccc(O)cc4CC[C@H]3[C@@H]1CC[C@@H]2O", "note": "[Estradiol]", "values": [
      {"measurement": "Uterus Weight, Average Value ± Standard Deviation", "setting": "[2]; single administration of 0.03 μg estradiol once daily over 3 days, s.c. (untreated control 11.8 ± 1.3)", "value": "63.9 ± 6.2", "unit": "mg"}
    ]},
    {"smiles": "C#C[C@]1(O)CC[C@H]2[C@@H]3CCc4cc(O)ccc4[C@H]3[C@H](OC)C[C@@]21C", "note": "[Ru-16117, 11α-methoxy-17α-ethynyl-1,3,5(10)-estratriene-3,17β-diol]", "values": [
      {"measurement": "% Inhibition, Decrease of Uterus Weight in Comparison to Single Estradiol Administration", "setting": "[2]; 0.3 μg/animal/day s.c. + 0.03 μg estradiol/animal/day, 3 days", "value": 8, "unit": "%"},
      {"measurement": "Uterus Weight, Average Value ± Standard Deviation", "setting": "[2]; 0.3 μg/animal/day s.c. + 0.03 μg estradiol/animal/day, 3 days, 8 animals per group", "value": "60.0 ± 2.4", "unit": "mg"},
      {"measurement": "% Inhibition, Decrease of Uterus Weight in Comparison to Single Estradiol Administration", "setting": "[2]; [5]", "value": 27, "unit": "%"},
      {"measurement": "Uterus Weight, Average Value ± Standard Deviation", "setting": "[2]; [6]", "value": "49.8 ± 1.6", "unit": "mg"},
      {"measurement": "% Inhibition, Decrease of Uterus Weight in Comparison to Single Estradiol Administration", "setting": "[2]; [7]", "value": 58, "unit": "%"},
      {"measurement": "Uterus Weight, Average Value ± Standard Deviation", "setting": "[2]; [8]", "value": "34.3 ± 2.3", "unit": "mg"},
      {"measurement": "Effectiveness compared with Tamoxifen", "setting": "[2]; \"somewhat more effective than Tamoxifen\"", "value": "somewhat more"},
      {"measurement": "Effect on uterus weight of the estradiol-stimulated uterus of infantile mice, in words", "setting": "[2]; 3 days", "value": "pronounced dosagedependent decrease in uterus weight"}
    ]},
    {"smiles": "CC/C(=C(\\c1ccccc1)c1ccc(OCCN(C)C)cc1)c1ccccc1", "note": "[Tamoxifen, (Z)-2-[p-(1,2-diphenyl-1-butenyl)-phenoxy]-N,N-dimethylethylamine]", "values": [
      {"measurement": "% Inhibition, Decrease of Uterus Weight in Comparison to Single Estradiol Administration", "setting": "[2]; [5]", "value": 11, "unit": "%"},
      {"measurement": "Uterus Weight, Average Value ± Standard Deviation", "setting": "[2]; [6]", "value": "57.5 ± 2.1", "unit": "mg"},
      {"measurement": "% Inhibition, Decrease of Uterus Weight in Comparison to Single Estradiol Administration", "setting": "[2]; [7]", "value": 40, "unit": "%"},
      {"measurement": "Uterus Weight, Average Value ± Standard Deviation", "setting": "[2]; [8]", "value": "43.3 ± 3.1", "unit": "mg"},
      {"measurement": "% Inhibition, Decrease of Uterus Weight in Comparison to Single Estradiol Administration", "setting": "[2]; 100 μg/animal/day s.c. + 0.03 μg estradiol/animal/day, 3 days", "value": 46, "unit": "%"},
      {"measurement": "Uterus Weight, Average Value ± Standard Deviation", "setting": "[2]; 100 μg/animal/day s.c. + 0.03 μg estradiol/animal/day, 3 days, 8 animals per group", "value": "39.7 ± 3.1", "unit": "mg"},
      {"measurement": "% Inhibition, Decrease of Uterus Weight in Comparison to Single Estradiol Administration", "setting": "[2]; 300 μg/animal/day s.c. + 0.03 μg estradiol/animal/day, 3 days", "value": 58, "unit": "%"},
      {"measurement": "Uterus Weight, Average Value ± Standard Deviation", "setting": "[2]; 300 μg/animal/day s.c. + 0.03 μg estradiol/animal/day, 3 days, 8 animals per group", "value": "34.1 ± 4.3", "unit": "mg"},
      {"measurement": "Effect on uterus weight of the estradiol-stimulated uterus of infantile mice, in words", "setting": "[2]; 3 days", "value": "pronounced dosagedependent decrease in uterus weight"}
    ]},
    {"smiles": "CC(=O)O[C@]1(C(C)=O)CC[C@H]2[C@@H]3C=C(Cl)C4=CC(=O)[C@@H]5C[C@@H]5[C@]4(C)[C@H]3CC[C@@]21C", "note": "[cyproterone acetate, 6-chloro-17-hydroxy-1α,2α-methylenepregna-4,6-diene-3,20-dione acetate]", "values": [
      {"measurement": "Effect on gland parenchyma", "setting": "prostate hyperplasia [3]", "value": "total atrophy of the gland parenchyma"},
      {"measurement": "Effect on proliferation of the interstitium", "setting": "prostate hyperplasia [3]", "value": "proliferation of the interstitium is not affected"}
    ]},
    {"smiles": "CCCCCC(=O)O[C@]1(C(C)=O)CC[C@H]2[C@@H]3CCC4=CC(=O)CC[C@@H]4[C@H]3CC[C@@]21C", "note": "[gestonorone caproate]", "values": [
      {"measurement": "Maximum flow value (flow of urine per unit time)", "setting": "prostate hyperplasia [4]; in vivo", "value": "improved"},
      {"measurement": "Reduction of the size of the adenoma", "setting": "prostate hyperplasia [4]; in vivo", "value": "A marked reduction of the size of the adenoma, however, also cannot be achieved"},
      {"measurement": "Miction period", "setting": "prostate hyperplasia [4]; prolonged prior to treatment", "value": "markedly shortened"},
      {"measurement": "Effect compared with phyto-preparations", "setting": "prostate hyperplasia [4]; prostate hyperplasia", "value": "a better effect"}
    ]},
    {"smiles": "CC[C@H](CC[C@@H](C)[C@H]1CC[C@H]2[C@@H]3CC=C4C[C@@H](O)CC[C@]4(C)[C@H]3CC[C@]12C)C(C)C", "note": "[β-sitosterol]", "values": [
      {"measurement": "Effectiveness in prostate hyperplasia", "setting": "hyperplastic prostate", "value": "ineffective"}
    ]}
  ]
}
